Assay in all cases: NCI tumour cell line growth inhibition, 48 h
Test [1] relates to EKVX NSCLC.
Test [2] has as its system HCC-2998 colon.
Test [3] deals with IGROV1 ovarian.
Test [4] deals with K-562 leukemia.
The subject of test [5] is NCI-H522 lung.
Test [6] relates to OVCAR-8 ovarian.
Test [7] concerns SK-MEL-5 melanoma.
In test [8] the test system is SW-620 colon.
For test [9], the system named is UACC-257 melanoma.
Test [10] relates to UACC-62 melanoma.

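Interpolation was linear, between the two tested concentrations surrounding the appropriate level; five concentrations were tested over 48 hours in 96-well plates. GI50: concentration for 50% inhibition of growth. Definition used: TGI = concentration required for complete inhibition of growth.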

Consider `CC1(C)OCN(c2ccc(Cl)cc2)Cn2c1nc1ccccc12`, for which the TGI in test [1] was above 100 µM; in test [2], above 80.9 µM; in test [3], above 26.7 µM; in [4] it was above 100 µM; in [5], above 100 µM; in test [6], above 100 µM. For the same compound, the TGI in [7] is 5.39 µM; in test [8], above 100 µM; in test [9], above 100 µM; in test [10], 5.58 µM.
Consider `CC(=O)Oc1cccc2c1C(=O)c1c(OC(C)=O)cc(C)cc1C2=O`, for which the TGI in test [1], in test [2], in test [3], in [4], in [5] and in [6] was above 100 µM throughout. Also, the TGI in [7], in [8], in [9] and in test [10] was above 100 µM in each case.
On to `COc1ccc2c3c(c(OCCCN(C)C)nc2c1)-c1ccc(Cl)cc1C3=O`, for which the GI50 in test [1] is 7.17 µM; in test [2], 5.19 µM; in [3], 1.73 µM; in [4], 2.38 µM; in [5], 7.1 µM; in test [6], 5.98 µM. The GI50 was 14.6 µM in test [7], 1.56 µM in test [8], 16.4 µM in [9] and 10.7 µM in test [10]. For the same compound, the TGI is 22.7 µM in test [1]; 21 µM in [2]; 25.9 µM in test [3]; above 100 µM in test [4]; 24.1 µM in test [5]; 34.6 µM in [6]. For the same compound, the TGI turned out to be 28.4 µM in [7], 12.9 µM in test [8], 33 µM in [9] and 23.6 µM in test [10].
As to `O=c1c([Se]c2coc3ccccc3c2=O)coc2ccccc12`, the TGI is 33.6 µM in test [1]; 33.2 µM in test [2]; 22.3 µM in [3]; above 100 µM in test [4]; 32.5 µM in test [5]; 25.5 µM in [6]. Besides, the TGI is 29.9 µM in test [7], 34.3 µM in test [8], 31.3 µM in [9] and 30.9 µM in test [10].
On to `CC(C)C(N)(C(=O)O)c1ccccc1` (stereo not given), for which the TGI in test [1], in [2], in test [3], in test [4], in test [5] and in test [6] was above 100 µM in each case. For the same compound, the TGI in [7], in test [8], in test [9] and in [10] was above 100 µM each time.
